For one compound, TGI results are on record in PubChem BioAssay (NCI).

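Following 48 hours of exposure in 96-well plates, responses at five concentrations were used to interpolate endpoints linearly. At the TGI there is no net growth.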

The test has as its system P388/ADR leukemia. Description: NCI tumour cell line growth inhibition, 48 h.

With `CCCCS(=N)(=O)CC[C@H](N)C(=O)O` (stereo partly specified), the TGI is > 5 mM.
